Our source for the Ki values is EP1655296A1, “Thrombin inhibitors” (Graffinity Pharmaceuticals AG, priority 2004, dated 2006).

As a reminder, the Ki is the equilibrium dissociation constant of an inhibitor or competing ligand from its target. Low readings indicate a stronger hold on the target, high ones a looser hold on the target.

The target in this assay is thrombin (Homo sapiens, UniProt P00734). Put plainly: Ki determinations thrombin (fluorogenic substrate Tosyl-GPR-AMC). Format: biochemical. Particulars: 20 °C; Tosyl-GPR-AMC 20 µM; thrombin concentration of 100 pM; HBS pH 7.4. The method, then: The Ki determinations are carried out at 20 °C with the fluorogenic substrate Tosyl-GPR-AMC (Bachem, Heidelberg, Germany; λexc = 370 nm, λem = 450 nm) at a thrombin concentration of 100 pM in HBS pH 7.4. The substrate is added to a final concentration of 20 µM in a total assay volume of 100 µl. The enzymatic reaction is started by addition of substrate. The emission at 450 nm is monitored in 1 minute intervals for 10 minutes using a polarstar reader (BMG Laboratories, Offenburg, Germany). Initial velocities of the control and the inhibited reactions (vo and vi) are estimated in FU/min at different compound concentrations. The inhibition constants are calculated using the Michaelis-Menten equation for competitive inhibition.

Molecule `Fc1c(NCCC2CCCCN2)ncc(Cl)c1CCNCc1n[nH]c2ccc(Cl)cc12` (stereo not shown) [example 1] displayed an inhibition constant (Ki) of under 1000 nM.
